Laboratory results reported in patent EP3860599B1, “(+)-ALPHA-DIHYDROTETRABENAZINE DOSAGE REGIMEN FOR TREATING MOVEMENT DISORDERS” (Adeptio Pharmaceuticals Limited, priority 2018, dated 2020).
Read-outs that look alike come from different tables or passages of the source.

Key:
[1] = Plasma concentrations after oral dosing (solution in apple juice) of human volunteers, Example 1A; assay type: in vivo; settings: for concentration at 1 h / concentration at 1.5 h / concentration at 2 h / concentration at 3 h / concentration at 0.5 h: human, plasma, po; for concentration at 0.5 h / plasma concentrations: 0.5 h
Procedure: (+)-α-Dihydrotetrabenazine in defined amounts was administered by oral dosing (as a solution in apple juice) to six human volunteers. […] At 60 minutes after drug administration, PET scans were initiated and these were stopped at 120 minutes after drug administration. The experiment was carried out at dosages of 7.5 mg, 15 mg and 22.5 mg. […]

VMAT2 = target: T1, VMAT2 (Homo sapiens, UniProt Q05940); assay: % VMAT2 blocking in caudate and putamen by PET scan 6-7 hours after oral dosing, Example 1B; assay type: in vivo; settings: for receptor occupancy at 7.5 mg: po, 7.5 mg oral, PET scan 6-7 hours after administration
T1 construct: from tissue
Text: Complete blocking of VMAT2 is considered undesirable as this can lead to unwanted side effects, such as Parkinsonism. […] The levels of VMAT2 blocking can be determined by competitive binding studies using Positron Emission Tomography (PET). By co-administering a radioactive ligand with the compound of interest at various concentrations, the proportion of binding sites occupied can be determined (see for example, Matthews et al., "Positron emission tomography molecular imaging for drug development", Br. J. Clin. Pharmacol., 73:2, 175-186).
Volunteers 1 and 2 were the same as volunteers 1 and 2 in Example 1A described above. […] Blood sample were taken from all volunteers at 2, 4, 6 and 7 hours after drug administration. In addition, in all volunteers PET scans were initiated at 6 hours after drug administration and these were stopped at 7 hours after drug administration.

[2] = 7.5 mg, subject 1 (112 kg), 7.5 mg oral
[3] = 7.5 mg, subject 2 (76 kg), 7.5 mg oral
[4] = 7.5 mg, subject 3 (129 kg), 7.5 mg oral
[5] = 7.5 mg, subject 4 (59 kg), 7.5 mg oral
[6] = 7.5 mg, subject 5 (91 kg), 7.5 mg oral
[7] = 7.5 mg, subject 6 (68 kg), 7.5 mg oral
[8] = 15 mg, subject 1 (112 kg), 15 mg oral
[9] = 15 mg, subject 2 (76 kg), 15 mg oral
[10] = 15 mg, subject 3 (129 kg), 15 mg oral
[11] = 15 mg, subject 4 (59 kg), 15 mg oral
[12] = 15 mg, subject 5 (91 kg), 15 mg oral
[13] = 15 mg, subject 6 (68 kg), 15 mg oral
[14] = 22.5 mg, subject 1 (112 kg), 22.5 mg oral
[15] = 22.5 mg, subject 2 (76 kg), 22.5 mg oral
[16] = 22.5 mg, subject 3 (129 kg), 22.5 mg oral
[17] = 22.5 mg, subject 5 (91 kg), 22.5 mg oral
[18] = 22.5 mg, subject 6 (68 kg), 22.5 mg oral

T1 sequence (Q05940 whole entry): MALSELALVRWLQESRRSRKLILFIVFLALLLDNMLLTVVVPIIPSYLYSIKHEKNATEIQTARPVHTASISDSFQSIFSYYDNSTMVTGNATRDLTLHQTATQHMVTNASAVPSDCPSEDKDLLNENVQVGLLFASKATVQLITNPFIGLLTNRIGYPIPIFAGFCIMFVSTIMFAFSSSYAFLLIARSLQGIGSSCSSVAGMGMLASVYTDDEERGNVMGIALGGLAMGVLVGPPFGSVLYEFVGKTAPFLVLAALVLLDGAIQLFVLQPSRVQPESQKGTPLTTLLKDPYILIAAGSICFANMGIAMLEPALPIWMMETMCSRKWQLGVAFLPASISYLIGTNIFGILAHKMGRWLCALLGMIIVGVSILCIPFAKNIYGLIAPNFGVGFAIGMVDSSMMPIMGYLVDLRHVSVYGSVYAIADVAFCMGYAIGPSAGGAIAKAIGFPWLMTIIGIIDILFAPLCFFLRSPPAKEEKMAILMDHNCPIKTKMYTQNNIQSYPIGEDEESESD

`COc1cc2c(cc1OC)[C@H]1C[C@@H](O)[C@H](CC(C)C)CN1CC2` [(+)-α-dihydrotetrabenazine, (R,R,R)-3-isobutyl-9,10-dimethyloxy-1,3,4,5,7,11b-hexahydro-2H-pyrido[2,1-a]isoquinolin-2-ol] showed a concentration at 1 h [1, 2] of 0.94 ng/mL, a concentration at 1.5 h [1, 2] of 2.39 ng/mL and a concentration at 2 h [1, 2] of 2.44 ng/mL. The concentration at 3 h [1, 2] was 3.01 ng/mL, the concentration at 0.5 h [1, 3] was 0.531 ng/mL and the concentration at 1 h [1, 3] was 13.7 ng/mL. It also gave a concentration at 1.5 h [1, 3] of 10.8 ng/mL, a concentration at 2 h [1, 3] of 14 ng/mL and a concentration at 3 h [1, 3] of 22.2 ng/mL. For the same compound, the concentration at 0.5 h [1, 4] was 0.216 ng/mL, the concentration at 1 h [1, 4] was 4.35 ng/mL and the concentration at 1.5 h [1, 4] was 6.91 ng/mL. For the same compound, the concentration at 2 h [1, 4] was 5.03 ng/mL, the concentration at 3 h [1, 4] was 6.96 ng/mL and the concentration at 0.5 h [1, 5] was 8.43 ng/mL. The concentration at 1 h [1, 5] was 15 ng/mL, the concentration at 1.5 h [1, 5] was 20.7 ng/mL and the concentration at 2 h [1, 5] was 17.6 ng/mL. For the same compound, the concentration at 3 h [1, 5] was 19.6 ng/mL, the concentration at 0.5 h [1, 6] was 6.68 ng/mL and the concentration at 1 h [1, 6] was 9.8 ng/mL. The concentration at 1.5 h [1, 6] was 13.5 ng/mL, the concentration at 2 h [1, 6] was 10.7 ng/mL and the concentration at 3 h [1, 6] was 11.2 ng/mL. It also gave a concentration at 1 h [1, 7] of 3.77 ng/mL, a concentration at 1.5 h [1, 7] of 3.06 ng/mL and a concentration at 2 h [1, 7] of 4.33 ng/mL. For the same compound, the concentration at 3 h [1, 7] was 9.18 ng/mL, the concentration at 0.5 h [1, 8] was 4.02 ng/mL and the concentration at 1 h [1, 8] was 11.1 ng/mL. The concentration at 1.5 h [1, 8] was 10.7 ng/mL, the concentration at 2 h [1, 8] was 10.2 ng/mL and the concentration at 3 h [1, 8] was 10.6 ng/mL. It also gave a concentration at 0.5 h [1, 9] of 7.99 ng/mL, a concentration at 1 h [1, 9] of 22.8 ng/mL and a concentration at 1.5 h [1, 9] of 46.4 ng/mL. The concentration at 2 h [1, 9] was 35.7 ng/mL, the concentration at 3 h [1, 9] was 46.5 ng/mL and the concentration at 0.5 h [1, 10] was 1.2 ng/mL. The concentration at 1 h [1, 10] was 14.3 ng/mL, the concentration at 1.5 h [1, 10] was 17.9 ng/mL and the concentration at 2 h [1, 10] was 12 ng/mL. For the same compound, the concentration at 3 h [1, 10] was 18.2 ng/mL, the concentration at 0.5 h [1, 11] was 26.7 ng/mL and the concentration at 1 h [1, 11] was 53.8 ng/mL. For the same compound, the concentration at 1.5 h [1, 11] was 42.5 ng/mL, the concentration at 2 h [1, 11] was 53.3 ng/mL and the concentration at 3 h [1, 11] was 60.2 ng/mL. The concentration at 0.5 h [1, 12] was 15.6 ng/mL, the concentration at 1 h [1, 12] was 34.2 ng/mL and the concentration at 1.5 h [1, 12] was 27.1 ng/mL. It also gave a concentration at 2 h [1, 12] of 31.8 ng/mL, a concentration at 3 h [1, 12] of 27.1 ng/mL and a concentration at 0.5 h [1, 13] of 5.41 ng/mL. For the same compound, the concentration at 1 h [1, 13] was 10.6 ng/mL, the concentration at 1.5 h [1, 13] was 16.1 ng/mL and the concentration at 2 h [1, 13] was 17.4 ng/mL. For the same compound, the concentration at 3 h [1, 13] was 14.9 ng/mL, the concentration at 0.5 h [1, 14] was 9.61 ng/mL and the concentration at 1 h [1, 14] was 18 ng/mL. It also gave a concentration at 1.5 h [1, 14] of 16.8 ng/mL, a concentration at 2 h [1, 14] of 14.9 ng/mL and a concentration at 3 h [1, 14] of 13.2 ng/mL. It also gave a concentration at 0.5 h [1, 15] of 5.23 ng/mL, a concentration at 1 h [1, 15] of 21.8 ng/mL and a concentration at 1.5 h [1, 15] of 36.2 ng/mL. The concentration at 2 h [1, 15] was 40.2 ng/mL, the concentration at 3 h [1, 15] was 51.8 ng/mL and the concentration at 0.5 h [1, 16] was 9.04 ng/mL. For the same compound, the concentration at 1 h [1, 16] was 34.7 ng/mL, the concentration at 1.5 h [1, 16] was 29.8 ng/mL and the concentration at 2 h [1, 16] was 26.3 ng/mL. For the same compound, the concentration at 3 h [1, 16] was 17.3 ng/mL, the concentration at 0.5 h [1, 17] was 55.3 ng/mL and the concentration at 1 h [1, 17] was 45.1 ng/mL. It also gave a concentration at 1.5 h [1, 17] of 46.2 ng/mL, a concentration at 2 h [1, 17] of 41.9 ng/mL and a concentration at 3 h [1, 17] of 42.5 ng/mL. For the same compound, the concentration at 0.5 h [1, 18] was 5.58 ng/mL, the concentration at 1 h [1, 18] was 8.01 ng/mL and the concentration at 1.5 h [1, 18] was 5.87 ng/mL. For the same compound, the concentration at 2 h [1, 18] was 12.5 ng/mL, the concentration at 3 h [1, 18] was 18.7 ng/mL and the plasma concentrations ([1]; subject 1 (112 kg), 7.5 mg oral) was “BLQ”. The plasma concentrations ([1]; subject 6 (68 kg), 7.5 mg oral) was “BLQ”, the “% VMAT2 blocking” value (VMAT2; after 6 hours following administration of 7.5mg) was “greater than 30%” and the “difference between the %VMAT2 blocking levels in the caudate and putamen regions of the striatum” value (VMAT2; each subject, 7.5 mg) was “No significant difference”. For the same compound, the receptor occupancy at 7.5 mg (VMAT2; Example 1B subject 1 (112 kg), read-out: %VMAT2 Occupancy Caudate) was 38%, the receptor occupancy at 7.5 mg (VMAT2; Example 1B subject 1 (112 kg), read-out: %VMAT2 Occupancy Putamen) was 39% and the receptor occupancy at 7.5 mg (VMAT2; Example 1B subject 2 (76 kg), read-out: %VMAT2 Occupancy Caudate) was 65%. It also gave a receptor occupancy at 7.5 mg (VMAT2; Example 1B subject 2 (76 kg), read-out: %VMAT2 Occupancy Putamen) of 63%, a receptor occupancy at 7.5 mg (VMAT2; Example 1B subject 3 (76 kg), read-out: %VMAT2 Occupancy Caudate) of 41% and a receptor occupancy at 7.5 mg (VMAT2; Example 1B subject 3 (76 kg), read-out: %VMAT2 Occupancy Putamen) of 42%. The receptor occupancy at 7.5 mg (VMAT2; Example 1B subject 4 (95 kg), read-out: %VMAT2 Occupancy Caudate) was 34%, the receptor occupancy at 7.5 mg (VMAT2; Example 1B subject 4 (95 kg), read-out: %VMAT2 Occupancy Putamen) was 32% and the receptor occupancy at 7.5 mg (VMAT2; Example 1B subject 5 (99 kg), read-out: %VMAT2 Occupancy Caudate) was 36%. The receptor occupancy at 7.5 mg (VMAT2; Example 1B subject 5 (99 kg), read-out: %VMAT2 Occupancy Putamen) was 36%, the receptor occupancy at 7.5 mg (VMAT2; Example 1B subject 6 (107 kg), read-out: %VMAT2 Occupancy Caudate) was 44% and the receptor occupancy at 7.5 mg (VMAT2; Example 1B subject 6 (107 kg), read-out: %VMAT2 Occupancy Putamen) was 49%. The “reduction of level of blocking after 6-7 hours compared to the %VMAT2 blocking after 1-2 hours following administration” value (VMAT2; subject 1, 7.5 mg) was 30% and the “reduction of level of blocking after 6-7 hours compared to the %VMAT2 blocking after 1-2 hours following administration” value (VMAT2; subject 2, 7.5 mg) was 11%.
